The text below walks through data of PubChem BioAssay AID624167 (Sanford-Burnham Center for Chemical Genomics, 2012).

For one assay, the system named is Rat fibroblasts (CREF). Put plainly: Peg3 promoter luciferase inhibitors, potency, dose response, cell-based, HeLa, CREF/GAPDH counter-screen panel (AID 624167). As to conditions: CREF/GAPDH counter-screens.
Experiment in assay [1]: as above
As to conditions: CREF/GAPDH counter-screens; GAPDH; mean of runs.

The next assay concerns GAPDH. The description is as above. As to conditions: CREF/GAPDH counter-screens.
In assay [2] the target is PEG-3 (UniProt Q6IN02). The description is as above. As to conditions: HeLa PEG-Prom luciferase reporter, overnight, CREF/GAPDH counter-screens, mean of runs. (In general: Reporter assays use an easily measured gene product as a stand-in for the process of interest.)
Chain of PEG-3 (UniProt Q6IN02) (Q6IN02 whole entry, looked up): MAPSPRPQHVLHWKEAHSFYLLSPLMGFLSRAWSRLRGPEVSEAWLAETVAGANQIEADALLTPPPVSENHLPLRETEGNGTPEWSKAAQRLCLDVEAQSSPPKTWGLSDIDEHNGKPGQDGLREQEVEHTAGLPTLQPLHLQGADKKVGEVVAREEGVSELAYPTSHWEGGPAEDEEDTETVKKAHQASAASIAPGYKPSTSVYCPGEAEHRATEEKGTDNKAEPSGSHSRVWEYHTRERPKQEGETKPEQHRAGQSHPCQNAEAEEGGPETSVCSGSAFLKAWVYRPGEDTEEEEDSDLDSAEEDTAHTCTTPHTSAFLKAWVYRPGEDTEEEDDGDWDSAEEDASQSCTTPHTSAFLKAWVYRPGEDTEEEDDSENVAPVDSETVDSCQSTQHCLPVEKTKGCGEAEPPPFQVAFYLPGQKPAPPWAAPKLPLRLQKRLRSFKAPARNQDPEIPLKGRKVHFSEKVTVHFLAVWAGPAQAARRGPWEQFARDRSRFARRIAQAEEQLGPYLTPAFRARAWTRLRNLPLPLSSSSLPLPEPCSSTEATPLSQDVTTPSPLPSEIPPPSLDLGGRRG
For assay [3], the system named is PEG-3. The assay is described as above. As to conditions: HeLa PEG-Prom luciferase reporter, overnight, CREF/GAPDH counter-screens.
Where [4] appears, read: run 1, dose range 1, individual replicate IC50 per panel.
Where [5] appears, read: run 2, dose range 1, individual replicate IC50 per panel.

Active and inactive are the calls of the source.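 The calls were made as follows: active = mean IC50 for reducing PEG3 promoter reporter signal at or below a set limit, with IC50 above the limit in both counter screens; inactive = the rest, including counter screen hits.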

`CCOc1cccc(/C=N/NC(=S)Nc2cc(S(=O)(=O)N3CCOCC3)ccc2N2CCOCC2)c1O`: the IC50 (as a rule, the concentration that gives 50% inhibition) in the assay with Rat fibroblasts (CREF) (mean of runs) is 72.8 µM (inactive); in the assay with Rat fibroblasts (CREF) (setting [4]), more than 100 µM; in the assay with Rat fibroblasts (CREF) (setting [5]), 72.8 µM; in assay [1] it was > 100 µM (inactive); in the assay on GAPDH (setting [4]), more than 100 µM; in the assay on GAPDH (setting [5]) it was more than 100 µM. For the same molecule, the IC50 at PEG-3 [2] is 17.3 µM; with PEG-3 [3] (setting [4]), 9.08 µM; with PEG-3 [3] (setting [5]) it was 25.5 µM.
`CS(=O)(=O)Nc1cccc(NC(=O)C2Cc3c(-c4cccc(F)c4)ccnc3O2)c1` (centres undefined): the IC50 in the assay with Rat fibroblasts (CREF) (mean of runs) is > 100 µM (inactive); in the assay on Rat fibroblasts (CREF) (setting [4]) it was more than 100 µM; in the assay on Rat fibroblasts (CREF) (setting [5]), more than 100 µM; with GAPDH (setting [4]), more than 100 µM; in the assay with GAPDH (setting [5]), 44.6 µM; on PEG-3 [2], 2.87 µM. For the same molecule, the results for the IC50 in the assay with PEG-3 [3] (setting [4]) and in the assay with PEG-3 [3] (setting [5]) were 3.11 µM and 2.62 µM, respectively. In addition, the IC50 result in assay [1] was “inactive”.
As to `CC(C)(C)c1ccc(Cn2c(=O)cnc3ccccc32)cc1`, the IC50 was 51 µM (inactive) with Rat fibroblasts (CREF) (mean of runs); more than 100 µM in the assay with Rat fibroblasts (CREF) (setting [4]); 1.93 µM in the assay with Rat fibroblasts (CREF) (setting [5]); 6.22 µM in assay [1]; 5.99 µM with GAPDH (setting [4]); 6.44 µM in the assay with GAPDH (setting [5]). Moreover, the figures for the IC50 with PEG-3 [3] (setting [4]) and in the assay on PEG-3 [3] (setting [5]) were 5.23 µM and more than 100 µM, respectively. Besides, the IC50 entry on PEG-3 [2] was “inactive”.
`CC(C)CC1C(=O)N(Cc2cn(Cc3ccco3)nn2)CCS(=O)(=O)N1Cc1ccc(-c2ccc(F)cc2)cc1` (centres undefined): the IC50 with Rat fibroblasts (CREF) (mean of runs) was 67.5 µM (inactive); in the assay with Rat fibroblasts (CREF) (setting [4]), more than 100 µM; in the assay on Rat fibroblasts (CREF) (setting [5]), 34.9 µM; in the assay on GAPDH (setting [4]) it was more than 100 µM; in the assay on GAPDH (setting [5]), 47.1 µM; on PEG-3 [2], 8.24 µM. For the same molecule, the IC50 with PEG-3 [3] (setting [4]) stood at 10.4 µM; with PEG-3 [3] (setting [5]), 6.09 µM. In assay [1], the IC50 result is “inactive”.
As to `CCOC(=O)c1c(SCCN2CCCCC2)n(-c2ccccc2)c(=S)n(-c2ccccc2)c1=O`, the IC50 was 13.6 µM in the assay on Rat fibroblasts (CREF) (mean of runs); 12.9 µM in the assay on Rat fibroblasts (CREF) (setting [4]); 14.4 µM in the assay with Rat fibroblasts (CREF) (setting [5]); 18.8 µM in assay [1]; 18.8 µM in the assay on GAPDH (setting [4]); 18.8 µM in the assay on GAPDH (setting [5]). Further, the IC50 at PEG-3 [2] is 7.28 µM; with PEG-3 [3] (setting [4]), 10.1 µM; with PEG-3 [3] (setting [5]), 4.4 µM.
`CCCCCCN1C=C/C(=C\C=C(C#N)C#N)c2ccccc21`: the IC50 was 55.3 µM (inactive) in the assay with Rat fibroblasts (CREF) (mean of runs); more than 100 µM with Rat fibroblasts (CREF) (setting [4]); 10.7 µM with Rat fibroblasts (CREF) (setting [5]); 1.24 µM with GAPDH (setting [4]); more than 100 µM in the assay with GAPDH (setting [5]); 10.2 µM at PEG-3 [2]. For the same molecule, the IC50 in the assay with PEG-3 [3] (setting [4]) stood at 13.4 µM; in the assay with PEG-3 [3] (setting [5]), 7.03 µM. Further, in assay [1], the IC50 entry was “inactive”.
As to `CC(=O)c1cccc(-c2ccnc3c2CC(C(=O)Nc2cccc(NS(C)(=O)=O)c2)O3)c1` (centres undefined), the IC50 with Rat fibroblasts (CREF) (mean of runs) was > 100 µM (inactive); with Rat fibroblasts (CREF) (setting [4]), more than 100 µM; in the assay with Rat fibroblasts (CREF) (setting [5]), more than 100 µM; in the assay on GAPDH (setting [4]), more than 100 µM; in the assay on GAPDH (setting [5]), 90.3 µM; on PEG-3 [2] it was 5.6 µM. The IC50 with PEG-3 [3] (setting [4]) was found to be 6.56 µM; in the assay with PEG-3 [3] (setting [5]), 4.65 µM. Besides, the IC50 result in assay [1] is “inactive”.
Turning to `C/C(=N\NC(=O)c1cc(C2CC2)nc2ccccc12)c1ccc(O)cc1O`, the IC50 was 60.7 µM (inactive) in the assay with Rat fibroblasts (CREF) (mean of runs); 21.5 µM in the assay on Rat fibroblasts (CREF) (setting [4]); more than 100 µM in the assay with Rat fibroblasts (CREF) (setting [5]); > 100 µM (inactive) in assay [1]; more than 100 µM in the assay on GAPDH (setting [4]); more than 100 µM with GAPDH (setting [5]). Besides, the IC50 on PEG-3 [2] is 3.26 µM; with PEG-3 [3] (setting [4]), 3.07 µM; in the assay with PEG-3 [3] (setting [5]), 3.45 µM.
With `CC(C)CCCCCCCCCCCCC(=O)NCC(=O)NC1C(O)C(O)C(Nc2ncnc3nc[nH]c23)OC1C(O)CO` (centres undefined), the IC50 in the assay with Rat fibroblasts (CREF) (mean of runs) was 50.1 µM (inactive); in the assay on Rat fibroblasts (CREF) (setting [4]), less than 0.2 µM; with Rat fibroblasts (CREF) (setting [5]) it was more than 100 µM; in assay [1], less than 0.2 µM; with GAPDH (setting [4]) it was less than 0.2 µM; with GAPDH (setting [5]) it was less than 0.2 µM. Moreover, the IC50 is 1.82 µM on PEG-3 [2], 3.44 µM in the assay with PEG-3 [3] (setting [4]) and less than 0.2 µM in the assay on PEG-3 [3] (setting [5]).
Consider `O=C(N/N=C\c1c(O)ccc2ccccc12)c1cncc(Br)c1`, for which the IC50 is 9.73 µM in the assay on Rat fibroblasts (CREF) (mean of runs); 2.43 µM in the assay with Rat fibroblasts (CREF) (setting [4]); 17 µM in the assay on Rat fibroblasts (CREF) (setting [5]); 40.3 µM in the assay on GAPDH (setting [4]); 69.7 µM in the assay with GAPDH (setting [5]); 0.512 µM at PEG-3 [2]. Further, the IC50 is 0.52 µM in the assay on PEG-3 [3] (setting [4]) and 0.504 µM in the assay on PEG-3 [3] (setting [5]). Besides, the IC50 result in assay [1] is “inactive”.
In the case of `COc1cc(Nc2c3ccccc3nc3ccccc23)cc(OC)c1OC`, the IC50 in the assay on Rat fibroblasts (CREF) (mean of runs) is 36.2 µM; with Rat fibroblasts (CREF) (setting [4]), 26.9 µM; in the assay on Rat fibroblasts (CREF) (setting [5]), 45.5 µM; in the assay with GAPDH (setting [4]) it was 33.2 µM; in the assay with GAPDH (setting [5]) it was 35 µM; on PEG-3 [2], 8.07 µM. Further, the results for the IC50 with PEG-3 [3] (setting [4]) and with PEG-3 [3] (setting [5]) were 8.96 µM and 7.19 µM, respectively. For the same molecule, the IC50 entry in assay [1] is “inactive”.
